Data reported in patent US8030443B2, “Squamous cell carcinoma antigen-derived peptide binding to HLA-A24 molecule” (Kurume University, priority 2005, dated 2011).

System: peptide-specific IgG in sera of cancer patients and healthy donors
Experiment: Measurement of anti-peptide IgG in plasma by LUMINEX multiplexed flow cytometric assay
Format: binding, human
Outline: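 Plasma diluted 1/100 incubated with peptide-coupled colour-coded beads 2 h at RT, then biotinylated goat anti-human IgG (γ-chain) 1 h and streptavidin-PE 30 min; fluorescence read by multiplexed flow cytometry, >100 counted significant. Specificity checked by three rounds of absorption on corresponding versus irrelevant SCCA peptide.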

How did the “Total: healthy donors with significant peptide-reactive IgG / donors tested” value (10 healthy donors, significant when fluorescence intensity exceeded 100 at 1/100 dilution) turn out when “EFHCNHPFL (SCCA 362-370 peptide) [SCCA-derived peptide, position 362-370]” was run?
The value was 1/10.

And the “Total: cancer patients with significant peptide-reactive IgG / patients tested” value (71 cancer patients, significant when fluorescence intensity exceeded 100 at 1/100 dilution)?
The value was 10/71.

What about the Fluorescence intesity (serum of Breast Ca. patient #36, 1:100 dilution) of the same sequence?
Its Fluorescence intesity is 10.

What about the Fluorescence intesity (serum of Breast Ca. patient #37, 1:100 dilution) of the same sequence?
Its Fluorescence intesity is 24.

What about the Fluorescence intesity (serum of Breast Ca. patient #38, 1:100 dilution) of the same sequence?
Its Fluorescence intesity is 8.

And the Fluorescence intesity (serum of Breast Ca. patient #39, 1:100 dilution)?
Its Fluorescence intesity is 11.

And the Fluorescence intesity (serum of Breast Ca. patient #40, 1:100 dilution)?
The Fluorescence intesity was 7.

What about the Fluorescence intesity (serum of Breast Ca. patient #41, 1:100 dilution) of the same sequence?
The Fluorescence intesity was 215.

And the Fluorescence intesity (serum of Breast Ca. patient #42, 1:100 dilution)?
The Fluorescence intesity was 19.

And the Fluorescence intesity (serum of Breast Ca. patient #43, 1:100 dilution)?
Its Fluorescence intesity is 10.

And the Fluorescence intesity (serum of Breast Ca. patient #44, 1:100 dilution)?
The Fluorescence intesity was 0.

And the Fluorescence intesity (serum of Breast Ca. patient #45, 1:100 dilution)?
The Fluorescence intesity was 20.

What about the Fluorescence intesity (serum of Colon Ca. patient #66, 1:100 dilution) of the same sequence?
The Fluorescence intesity was 0.

And the Fluorescence intesity (serum of Colon Ca. patient #67, 1:100 dilution)?
The Fluorescence intesity was 0.

And the Fluorescence intesity (serum of Colon Ca. patient #68, 1:100 dilution)?
Its Fluorescence intesity is 0.

What about the Fluorescence intesity (serum of Colon Ca. patient #69, 1:100 dilution) of the same sequence?
The Fluorescence intesity was 0.

And the Fluorescence intesity (serum of Colon Ca. patient #70, 1:100 dilution)?
Its Fluorescence intesity is 1.

What about the Fluorescence intesity (serum of Colon Ca. patient #71, 1:100 dilution) of the same sequence?
The Fluorescence intesity was 19.

And the Fluorescence intesity (serum of Gastric Ca. patient #56, 1:100 dilution)?
The Fluorescence intesity was 0.

What about the Fluorescence intesity (serum of Gastric Ca. patient #57, 1:100 dilution) of the same sequence?
Its Fluorescence intesity is 0.

And the Fluorescence intesity (serum of Gastric Ca. patient #58, 1:100 dilution)?
The Fluorescence intesity was 6.

What about the Fluorescence intesity (serum of Gastric Ca. patient #59, 1:100 dilution) of the same sequence?
The Fluorescence intesity was 10.

And the Fluorescence intesity (serum of Gastric Ca. patient #60, 1:100 dilution)?
Its Fluorescence intesity is 0.

And the Fluorescence intesity (serum of Gastric Ca. patient #61, 1:100 dilution)?
Its Fluorescence intesity is 1.

What about the Fluorescence intesity (serum of Gastric Ca. patient #62, 1:100 dilution) of the same sequence?
The Fluorescence intesity was 0.

And the Fluorescence intesity (serum of Gastric Ca. patient #63, 1:100 dilution)?
The Fluorescence intesity was 0.

What about the Fluorescence intesity (serum of Gastric Ca. patient #64, 1:100 dilution) of the same sequence?
The Fluorescence intesity was 0.

What about the Fluorescence intesity (serum of Gastric Ca. patient #65, 1:100 dilution) of the same sequence?
Its Fluorescence intesity is 0.

What about the Fluorescence intesity (serum of Healthy Donor #1, 1:100 dilution) of the same sequence?
The Fluorescence intesity was 0.

And the Fluorescence intesity (serum of Healthy Donor #2, 1:100 dilution)?
Its Fluorescence intesity is 37.

And the Fluorescence intesity (serum of Healthy Donor #3, 1:100 dilution)?
Its Fluorescence intesity is 0.

What about the Fluorescence intesity (serum of Healthy Donor #4, 1:100 dilution) of the same sequence?
The Fluorescence intesity was 0.

What about the Fluorescence intesity (serum of Healthy Donor #5, 1:100 dilution) of the same sequence?
The Fluorescence intesity was 0.

And the Fluorescence intesity (serum of Healthy Donor #6, 1:100 dilution)?
The Fluorescence intesity was 0.

And the Fluorescence intesity (serum of Healthy Donor #7, 1:100 dilution)?
Its Fluorescence intesity is 0.

And the Fluorescence intesity (serum of Healthy Donor #8, 1:100 dilution)?
The Fluorescence intesity was 283.

And the Fluorescence intesity (serum of Healthy Donor #9, 1:100 dilution)?
The Fluorescence intesity was 29.

What about the Fluorescence intesity (serum of Healthy Donor #10, 1:100 dilution) of the same sequence?
The Fluorescence intesity was 0.

What about the Fluorescence intesity (serum of Pancreas Ca. patient #46, 1:100 dilution) of the same sequence?
The Fluorescence intesity was 0.

What about the Fluorescence intesity (serum of Pancreas Ca. patient #47, 1:100 dilution) of the same sequence?
The Fluorescence intesity was 1.

And the Fluorescence intesity (serum of Pancreas Ca. patient #48, 1:100 dilution)?
The Fluorescence intesity was 339.

And the Fluorescence intesity (serum of Pancreas Ca. patient #49, 1:100 dilution)?
Its Fluorescence intesity is 0.

And the Fluorescence intesity (serum of Pancreas Ca. patient #50, 1:100 dilution)?
Its Fluorescence intesity is 0.

What about the Fluorescence intesity (serum of Pancreas Ca. patient #51, 1:100 dilution) of the same sequence?
The Fluorescence intesity was 0.

And the Fluorescence intesity (serum of Pancreas Ca. patient #52, 1:100 dilution)?
Its Fluorescence intesity is 104.

And the Fluorescence intesity (serum of Pancreas Ca. patient #53, 1:100 dilution)?
The Fluorescence intesity was 0.

What about the Fluorescence intesity (serum of Pancreas Ca. patient #54, 1:100 dilution) of the same sequence?
The Fluorescence intesity was 6.

And the Fluorescence intesity (serum of Pancreas Ca. patient #55, 1:100 dilution)?
Its Fluorescence intesity is 0.

And the Fluorescence intesity (serum of Uterine cervical Ca. patient #1, 1:100 dilution)?
Its Fluorescence intesity is 0.

What about the Fluorescence intesity (serum of Uterine cervical Ca. patient #2, 1:100 dilution) of the same sequence?
Its Fluorescence intesity is 0.

What about the Fluorescence intesity (serum of Uterine cervical Ca. patient #3, 1:100 dilution) of the same sequence?
Its Fluorescence intesity is 0.

And the Fluorescence intesity (serum of Uterine cervical Ca. patient #4, 1:100 dilution)?
Its Fluorescence intesity is 0.

And the Fluorescence intesity (serum of Uterine cervical Ca. patient #5, 1:100 dilution)?
Its Fluorescence intesity is 3.

And the Fluorescence intesity (serum of Uterine cervical Ca. patient #6, 1:100 dilution)?
The Fluorescence intesity was 611.

And the Fluorescence intesity (serum of Uterine cervical Ca. patient #7, 1:100 dilution)?
The Fluorescence intesity was 11.

What about the Fluorescence intesity (serum of Uterine cervical Ca. patient #8, 1:100 dilution) of the same sequence?
Its Fluorescence intesity is 49.

And the Fluorescence intesity (serum of Uterine cervical Ca. patient #9, 1:100 dilution)?
The Fluorescence intesity was 90.

And the Fluorescence intesity (serum of Uterine cervical Ca. patient #10, 1:100 dilution)?
Its Fluorescence intesity is 15.

What about the Fluorescence intesity (serum of Uterine cervical Ca. patient #11, 1:100 dilution) of the same sequence?
Its Fluorescence intesity is 28.

What about the Fluorescence intesity (serum of Uterine cervical Ca. patient #12, 1:100 dilution) of the same sequence?
Its Fluorescence intesity is 37.

What about the Fluorescence intesity (serum of Uterine cervical Ca. patient #13, 1:100 dilution) of the same sequence?
Its Fluorescence intesity is 25.

What about the Fluorescence intesity (serum of Uterine cervical Ca. patient #14, 1:100 dilution) of the same sequence?
Its Fluorescence intesity is 17.

And the Fluorescence intesity (serum of Uterine cervical Ca. patient #15, 1:100 dilution)?
Its Fluorescence intesity is 106.

And the Fluorescence intesity (serum of Uterine cervical Ca. patient #16, 1:100 dilution)?
Its Fluorescence intesity is 191.

What about the Fluorescence intesity (serum of Uterine cervical Ca. patient #17, 1:100 dilution) of the same sequence?
The Fluorescence intesity was 56.

And the Fluorescence intesity (serum of Uterine cervical Ca. patient #18, 1:100 dilution)?
The Fluorescence intesity was 50.

What about the Fluorescence intesity (serum of Uterine cervical Ca. patient #19, 1:100 dilution) of the same sequence?
The Fluorescence intesity was 48.

And the Fluorescence intesity (serum of Uterine cervical Ca. patient #20, 1:100 dilution)?
The Fluorescence intesity was 104.

What about the Fluorescence intesity (serum of Uterine cervical Ca. patient #21, 1:100 dilution) of the same sequence?
The Fluorescence intesity was 22.

And the Fluorescence intesity (serum of Uterine cervical Ca. patient #22, 1:100 dilution)?
The Fluorescence intesity was 27.

And the Fluorescence intesity (serum of Uterine cervical Ca. patient #23, 1:100 dilution)?
Its Fluorescence intesity is 56.

What about the Fluorescence intesity (serum of Uterine cervical Ca. patient #24, 1:100 dilution) of the same sequence?
Its Fluorescence intesity is 1234.

What about the Fluorescence intesity (serum of Uterine cervical Ca. patient #25, 1:100 dilution) of the same sequence?
The Fluorescence intesity was 21.

And the Fluorescence intesity (serum of Uterine cervical Ca. patient #26, 1:100 dilution)?
Its Fluorescence intesity is 83.

What about the Fluorescence intesity (serum of Uterine cervical Ca. patient #27, 1:100 dilution) of the same sequence?
The Fluorescence intesity was 36.

What about the Fluorescence intesity (serum of Uterine cervical Ca. patient #28, 1:100 dilution) of the same sequence?
The Fluorescence intesity was 153.

What about the Fluorescence intesity (serum of Uterine cervical Ca. patient #29, 1:100 dilution) of the same sequence?
Its Fluorescence intesity is 20.

What about the Fluorescence intesity (serum of Uterine cervical Ca. patient #30, 1:100 dilution) of the same sequence?
The Fluorescence intesity was 35.

What about the Fluorescence intesity (serum of Uterine cervical Ca. patient #31, 1:100 dilution) of the same sequence?
Its Fluorescence intesity is 133.

And the Fluorescence intesity (serum of Uterine cervical Ca. patient #32, 1:100 dilution)?
The Fluorescence intesity was 23.

What about the Fluorescence intesity (serum of Uterine cervical Ca. patient #33, 1:100 dilution) of the same sequence?
Its Fluorescence intesity is 93.

What about the Fluorescence intesity (serum of Uterine cervical Ca. patient #34, 1:100 dilution) of the same sequence?
The Fluorescence intesity was 16.

What about the Fluorescence intesity (serum of Uterine cervical Ca. patient #35, 1:100 dilution) of the same sequence?
Its Fluorescence intesity is 21.
